Target: cloned human glucagon receptor (Homo sapiens (Human), UniProt P47871)
Assay: Glucagon Receptor (hGlucR) Binding Assay
Protocol: The hGlucuR cDNA is subcloned into the expression plasmid phD (Trans-activated expression of fully gamma-carboxylated recombinant human protein C, an antithrombotic factor. Grinnell, B. W., Berg, D. T., Walls, J. and Yan, S. B. Bio/Technology 5: 1189-1192 (1987)). This plasmid DNA is transfected into 293 HEK cells and selected with 200 μg/mL Hygromycin.
Crude plasma membranes are prepared using cells from suspension culture. The cells are lysed on ice in hypotonic buffer containing 25 mM Tris HCL, pH 7.5, 1 mM MgCl2, DNAse1, 20 u/mL, and Roche Complete Inhibitors-without EDTA. The cell suspension is homogenized with a glass dounce homogenizer using a Teflon pestle for 25 strokes. The homogenate is centrifuged at 4 degrees C. at 1800×g for 15 mins. The supernate is collected and the pellet is resuspended in hypotonic buffer and rehomogenized. The mixture is centrifuged at 1800×g for 15 mins. The second supernate is combined with the first supernate. The combined supernates are recentrifuged at 1800×g for 15 mins to clarify. The clarified supernate is transferred to high speed tubes and centrifuged at 25000×g for 30 minutes at 4 degrees C. […]
The binding buffer contains 25 mM Hepes, pH 7.4, 2.5 mM CaCl2, 1 mM MgCl2, 0.1% fatty acid free BSA, (ICN), 0.003% tween-20, and Roche Complete Inhibitors without EDTA. […] Plates are read with a MicroBeta after 14 hours of settling time at room temp. […]

cloned human glucagon receptor, sequence (P47871 26-477): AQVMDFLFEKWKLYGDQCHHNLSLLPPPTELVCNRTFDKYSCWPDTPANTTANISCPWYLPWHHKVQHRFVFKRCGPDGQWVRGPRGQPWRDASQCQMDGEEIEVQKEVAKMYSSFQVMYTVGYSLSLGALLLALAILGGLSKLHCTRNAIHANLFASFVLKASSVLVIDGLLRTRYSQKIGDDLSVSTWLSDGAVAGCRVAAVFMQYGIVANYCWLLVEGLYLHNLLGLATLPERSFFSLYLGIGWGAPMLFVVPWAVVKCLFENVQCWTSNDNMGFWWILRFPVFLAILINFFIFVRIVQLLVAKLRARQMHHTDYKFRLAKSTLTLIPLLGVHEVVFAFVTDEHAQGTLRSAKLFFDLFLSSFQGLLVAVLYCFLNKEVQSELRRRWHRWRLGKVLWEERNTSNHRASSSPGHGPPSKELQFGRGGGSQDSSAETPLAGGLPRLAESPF

Ki: 93.3 nM
SMILES: Cc1cc(OC(CCC(C)(C)C)c2ccc(C(=O)Nc3nnn[nH]3)cc2)cc(C)c1-c1ccc(C(F)(F)F)cc1 (stereo not shown)

— patent US8691856B2 (Eli Lilly and Company, priority 2005, dated 2014)
